Holding throughout (assay): NCI-60 cell line screen, 48 h
The subject of test [1] is A549.
The test system of test [2] is COLO 205.
The subject of test [3] is HOP-92.
The test system of test [4] is IGROV-1.
For test [5], the system named is LXFL 529.
In test [6] the test system is M14.
In test [7] the test system is NCI-H23.
The subject of test [8] is OVCAR-5.
The test system of test [9] is OVCAR-8.
The subject of test [10] is RXF 393.
Test [11] deals with SK-MEL-28.
The subject of test [12] is SK-OV-3.
The test system of test [13] is SNB-19.
The subject of test [14] is U-251.
Test [15] has as its system A498.
In test [16] the test system is HCT-15.
Test [17] relates to LOX IMVI.
Test [18] has as its system MDA-MB-231.
The subject of test [19] is NCI/ADR-RES.
The test system of test [20] is SK-MEL-2.

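Tested at 5 concentrations; 48 h exposure; 96-well plates; endpoints linearly interpolated, else capped at highest concentration. Abbreviation: GI50, concentration required for 50% inhibition of growth.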 The source made the active and inactive calls. Rule as the data show it: active = GI50 up to about 1.1 µM and inactive = higher.

With `NC1=NNC(=O)c2nnc3c(C(=O)O)cnn3c2S1`, the GI50 in [1], in [2], in test [3], in [4], in test [5] and in test [6] was > 100 µM (inactive) in each case. Moreover, the GI50 in [7], in test [8], in [9], in test [10], in [11] and in [12] was > 100 µM (inactive) in each case. The GI50 in test [13] and in [14] was > 100 µM (inactive) in each case.

Turning to `CN(C)c1ccc(/C=C2\C[C@H]3[C@@H]4CCC5=CC(=O)CC[C@]5(C)[C@H]4CC[C@]3(C)C2=O)cc1`, the GI50 in [15] was 37.7 µM (inactive); in test [1], 38 µM (inactive); in test [2], 21.7 µM (inactive); in test [16] it was 34.4 µM; in [3] it was 22.4 µM (inactive); in test [4] it was 63.1 µM (inactive). Besides, the GI50 in test [17] is 20.8 µM (inactive); in [6] it was 43.9 µM (inactive); in test [18], 38.9 µM (inactive); in test [7], 52.7 µM (inactive); in test [19], 38.3 µM (inactive); in test [8] it was > 100 µM (inactive). Besides, the GI50 was 31.8 µM (inactive) in test [9]; 99.5 µM (inactive) in test [10]; > 100 µM (inactive) in [11]; 50.9 µM (inactive) in [20]; > 100 µM (inactive) in [12]; > 100 µM (inactive) in test [13]. In test [14], the GI50 was 20.2 µM (inactive).

With `COC(=O)[C@@H]1CN(C(=O)c2ccccc2)C(=O)N1C(=O)OCc1ccccc1`, the GI50 is > 100 µM (inactive) in test [15]; > 100 µM (inactive) in [1]; > 100 µM (inactive) in test [2]; above 100 µM in [16]; > 100 µM (inactive) in test [3]; > 100 µM (inactive) in test [4]. Besides, the GI50 in test [17], in test [6], in test [18], in test [7], in test [19] and in [8] was > 100 µM (inactive) throughout. Further, the GI50 in [9], in [10], in [11], in test [20], in test [12] and in test [13] was > 100 µM (inactive) each time. Moreover, the GI50 in test [14] was > 100 µM (inactive).

In the case of `O=[N+]([O-])CC(SCc1ccccc1)c1ccc2c(c1)OCO2` (stereo not given), the GI50 was 6.98 µM (inactive) in test [15]; 7.67 µM (inactive) in [1]; 8.24 µM (inactive) in test [2]; 3.84 µM in test [16]; 3.79 µM (inactive) in [3]; 5.6 µM (inactive) in test [4]. Also, the GI50 in test [17] was 1.56 µM (inactive); in test [6] it was 5.6 µM (inactive); in test [18] it was 10.3 µM (inactive); in [7], 7.19 µM (inactive); in test [19], 9.57 µM (inactive); in test [8] it was 15.2 µM (inactive). The GI50 was 8.49 µM (inactive) in test [9]; 1.82 µM (inactive) in test [10]; 5.82 µM (inactive) in [11]; 21.1 µM (inactive) in [20]; 15.1 µM (inactive) in test [12]; 14 µM (inactive) in test [13]. Further, in test [14], the GI50 was 6.59 µM (inactive).

In the case of `C[Si](C)(c1ccc(C(=O)O)cc1)c1ccc(C(=O)O)cc1`, the GI50 in test [15] was > 100 µM (inactive); in test [1], > 100 µM (inactive); in test [2] it was > 100 µM (inactive); in test [16], above 100 µM; in test [3] it was > 100 µM (inactive); in test [4], > 100 µM (inactive). The GI50 in test [17], in test [6], in test [18], in [7], in test [19] and in [8] was > 100 µM (inactive) throughout. The GI50 in test [9], in test [10], in [11], in [20], in [12] and in test [13] was > 100 µM (inactive) each time. Further, in test [14], the GI50 is > 100 µM (inactive).

As to `CCOC(=O)C(C[Si](C)(C)C)P(=O)(OCC)OCC` (stereo not given), the GI50 in test [1] is > 100 µM (inactive); in test [2] it was > 100 µM (inactive); in test [16] it was above 100 µM; in test [3], > 100 µM (inactive); in test [4], > 100 µM (inactive); in test [17], > 100 µM (inactive). The GI50 in [5], in test [6], in [7], in [8], in [9] and in test [10] was > 100 µM (inactive) in each case. Besides, the GI50 in test [11], in test [12] and in [14] was > 100 µM (inactive) throughout.

Regarding `O=C1/C(=N\n2c(S)nnc2-c2ccncc2)c2cc(Cl)ccc2N1CN1CCCCC1`, the GI50 in test [15] was 50.9 µM (inactive); in test [1] it was 53.2 µM (inactive); in test [2], 41 µM (inactive); in test [16], 25.4 µM; in [3], 56 µM (inactive); in test [4] it was 16.1 µM (inactive). For the same compound, the GI50 is 17.5 µM (inactive) in test [17]; 44.7 µM (inactive) in test [6]; > 100 µM (inactive) in test [18]; 46.6 µM (inactive) in [7]; 57.5 µM (inactive) in test [19]; > 100 µM (inactive) in [8]. In addition, the GI50 is 31.8 µM (inactive) in [9]; 15.8 µM (inactive) in test [10]; 65.3 µM (inactive) in test [11]; 20.9 µM (inactive) in [20]; 39.5 µM (inactive) in test [12]; 76 µM (inactive) in [13]. Besides, the GI50 in [14] was 40.4 µM (inactive).

For `CC(=O)Nc1cc(CN2CCCCC2)c(O)c2ncccc12`, the GI50 in [15] is 65.9 µM (inactive); in test [1], 32.9 µM (inactive); in test [2], 49.7 µM (inactive); in [16], 6.01 µM; in [3] it was 49.5 µM (inactive); in test [4], 28.4 µM (inactive). For the same compound, the GI50 in test [17] is 20.2 µM (inactive); in test [6], 15.4 µM (inactive); in [18] it was 15.8 µM (inactive); in test [7], 40.7 µM (inactive); in test [19], 16.2 µM (inactive); in [8], 34.8 µM (inactive). Moreover, the GI50 in [9] is 29.6 µM (inactive); in test [10], 4.29 µM (inactive); in test [11], 27.3 µM (inactive); in test [20], 4.13 µM (inactive); in test [12], 36.5 µM (inactive); in test [13], 39.7 µM (inactive). Besides, the GI50 in test [14] is 17.1 µM (inactive).

For the compound `OCC(S)CS.[Bi]` (stereo not given), the GI50 is 27 µM (inactive) in test [15]; 28 µM (inactive) in [1]; 14.5 µM (inactive) in test [2]; 15 µM in [16]; 23.7 µM (inactive) in test [3]; 18.3 µM (inactive) in test [4]. In addition, the GI50 in test [17] is 20.7 µM (inactive); in test [6] it was 8.36 µM (inactive); in test [18], 24.4 µM (inactive); in test [7], 17.1 µM (inactive); in [19], 36.1 µM (inactive); in test [8], 19.9 µM (inactive). Also, the GI50 in [9] is 19.5 µM (inactive); in [10] it was 10.7 µM (inactive); in [11], 12 µM (inactive); in test [20], 12.6 µM (inactive); in test [12], 31.6 µM (inactive); in test [13], 13.7 µM (inactive). Moreover, in test [14], the GI50 was 15.1 µM (inactive).

With `O=[N+]([O-])C(C(Cl)=C(Cl)Cl)=C(N(Cc1ccccc1)Cc1ccccc1)N(Cc1ccccc1)Cc1ccccc1`, the GI50 in test [15] was 30.5 µM (inactive); in [1], > 100 µM (inactive); in test [2], 57 µM (inactive); in test [16], above 100 µM; in test [3], 15.6 µM (inactive); in [4], 45.1 µM (inactive). Also, the GI50 was 32.4 µM (inactive) in [17]; 34.8 µM (inactive) in test [6]; 70.6 µM (inactive) in [18]; > 100 µM (inactive) in test [7]; > 100 µM (inactive) in test [19]; 30.2 µM (inactive) in [8]. Besides, the GI50 in test [9] is > 100 µM (inactive); in test [10] it was 92.9 µM (inactive); in test [11], > 100 µM (inactive); in test [20], 36.4 µM (inactive); in test [12] it was 38.1 µM (inactive); in test [13] it was > 100 µM (inactive). Moreover, the GI50 in test [14] was > 100 µM (inactive).

As to `C[C@H]1O[C@@H](O[C@H]2[C@@H](O)C[C@H](O[C@H]3[C@@H](O)C[C@H](O[C@H]4CC[C@@]5(C)[C@H](CC[C@@H]6[C@@H]5CC[C@]5(C)[C@@H](C7=CC(=O)OC7)[C@@H](O)C[C@]65O)C4)O[C@@H]3C)O[C@@H]2C)C[C@H](O)[C@@H]1O` [GITOXIN], the GI50 in test [15] is 0.237 µM (active); in test [1] it was 0.0719 µM (active); in [2] it was 0.798 µM (active); in test [16], 0.593 µM; in test [3], 0.402 µM (active); in test [4], 0.416 µM (active). Besides, the GI50 was 0.215 µM (active) in [17]; 0.475 µM (active) in [6]; 1.2 µM (inactive) in [18]; 0.0869 µM (active) in test [7]; 0.197 µM (active) in [19]; 0.656 µM (active) in test [8]. Also, the GI50 was 0.226 µM (active) in test [9]; 0.0991 µM (active) in test [10]; 1.15 µM (inactive) in test [11]; 0.543 µM (active) in [20]; 0.39 µM (active) in [12]; 0.714 µM (active) in test [13]. Also, in [14], the GI50 was 0.258 µM (active).

Values taken from ChEMBL document CHEMBL1201862, “PubChem BioAssay data set” (2004).
